Measured values taken from patent US20230390406A1, “Star Polymer Drug Conjugates” (Vaccitech North America, Inc., priority 2020, published 2023).
Where a SMILES comes first, the peptide text is derived from it.

Experiments:
human cathepsin B = molecular target: T1, human cathepsin B (Homo sapiens, UniProt P07858); experiment: Cleavage of AMC-peptides by cathepsin B (HPLC, 350 nm); assay type: biochemical; conditions: pH 5, 37° C., up to 6 hrs
T1 construct: purchased Sino Biological
Experimental: (§1) A series of peptide-based small molecules were screened in vitro to characterize their lability in human cathepsin B and mouse plasma enzymes. The screening protocol was adapted from literatures^1,2 and is shown below in FIGS. 31 and 32. In short, a small library of peptides conjugated to 7-amino-4-methylcoumarin (AMC-peptides) were synthesized by standard solid-phase peptide synthesis (SPPS) by Genscript (Piscataway, NJ), as summarized in the Table 18. They were first dissolved in DMSO as 10 mM stock solution and then incubated in the presence of PBS buffer (Gibco, 10010-031), cathepsin B (Sino Biological, protein human recombinant), and mouse plasma (BioIVT, C57BL/6 li-hep pooled, female). Substrates of either cathepsin B or plasma enzymes (and not PBS) afforded cleavage of the peptide-AMC bond. The resultant free AMC elutes at a different time from the parent AMC-conjugated peptides on the HPLC, thereby the linker degradation was monitored and quantified over time (i.e., 5 min, 1 hr and 6 hrs). PBS buffer solution was used as the matrix for the negative control. Cleavage of cathepsin B substrate Ill (Millipore Sigma, 219392) served as the positive control.
(§2) The stability of the analyte peptide was determined by the comparing the area-under-curve (AUC) of analyte peaks at 350 nm following formula: […]

mouse plasma enzymes = experiment: Stability of AMC-peptides in mouse plasma (HPLC, 350 nm); assay type: in vitro ADME; conditions: up to 6 hrs
Experimental: Peptide linker stock solutions (10 mM in DMSO) are diluted to 1 mM and then incubated with mouse plasma; aliquots are removed, blood proteins are precipitated with cold acetonitrile, pelleted with centrifugation, and the supernatant analyzed by HPLC.
as §1, §2

[1] = Particle / hydrodynamic size (Rh, Dh) by dynamic light scattering; assay type: physicochemical
Experimental: Samples were suspended at 0.5 mg/mL in PBS pH 7.4 and particle size was determined using dynamic light scattering (Malvern ZetaSizer Ultra).

CT26 tumors = experiment: CT26 tumor model, single intratumoral injection of 35 nmol STINGa; assay type: in vivo, BALB/c mice; conditions: 35 nmol STINGa IT, versus vehicle or free STINGa
Experimental: Tumor size was measured by digital calipers (FIG. 11B) and survival (FIG. 11C) were assessed up to 80 days after tumor implantation.
To assess the impact of linkage on efficacy in vivo, select compositions were tested in tumor-bearing mice (FIG. 11). The study design is shown in (FIG. 11A). BALB/c mice were implanted subcutaneously with 10^5 cells of the syngeneic tumor line CT26 on day 0. Tumors were allowed to grow until all mice in the study had palpable tumors. On day 12, mice were treated with a single intratumoral (IT) injection of 35 nmol of the STINGa as either (i) Compound 56 (amide linkage); (ii) Compound 94 hydrazone (Hz) linkage; or (iii) the free STINGa. An additional group of mice was treated with the formulation vehicle (7% DMSO in PBS) as a negative control. Tumors were measured biweekly to track tumor growth after treatment.

MC38 tumors = experiment: MC38 tumor model, single intratumoral injection of 7 nmol STINGa (diABZI); assay type: in vivo, C57BL/6 mice; conditions: 7 nmol STINGa IT day 11, versus vehicle / untreated
Experimental: (§3) Tumor size was measured by digital calipers for up to 30 days after tumor implantation (FIG. 12 B & C). To assess acute toxicity, mice were bled 4 hours after treatment, and blood IP-10 concentration was assessed by ELISA (FIG. 12D).
(§4) To further assess the impact of linkage on efficacy and tolerability in vivo, select compositions of the Compound listed in Table 9 were evaluated in tumor-bearing mice (FIG. 12). The study design is shown in (FIG. 12A). […] Tumors were allowed to grow until all mice in the study had palpable tumors. On day 11, mice were treated with a single intratumoral (IT) injection of 7 nmol of STINGa (diABZI) as either Compound 56, Compound 94, Compound 95, Compound 96 or Compound 97 in PBS. As a control, a group of mice was treated with the formulation vehicle (7% DMSO in PBS). Tumors were measured biweekly to track tumor growth after treatment. Tolerability was assessed by measuring the amount of Interferon-gamma-induced protein 10 (IP-10) in the serum of animals 4 hours after intratumoral injection.

[2] = test system: Interferon-gamma-induced protein 10 (IP-10); experiment: Serum IP-10 (ELISA) 4 hours after intratumoral injection (tolerability); assay type: in vivo, C57BL/6 mice; conditions: 4 hours after 7 nmol IT
Experimental: as §3, §4

[3] = Turbidity (OD 490 nm) / solubility in PBS buffer at different pH; assay type: physicochemical

Compound	stability / cleavage in the presence of cathepsin B (human cathepsin B)	stability in mouse plasma (mouse plasma enzymes)	Rh (nm) at pH 7.4 [1]	further results
CCC(NC(=O)[C@@H](NC(=O)[C@@H]1CCCN1C(=O)[C@H](CO)NC(=O)CCNC(C)=O)C(C)C)C(=O)Nc1ccc2c(C)cc(=O)oc2c1 (some centres unmarked) [AI, Ac-A′SPVB-AMC] (HELM PEPTIDE1{[ac].[bAla].S.P.V.[CCC(N[*:1])C(=O)[*:2]].[Cc1cc(=O)oc2cc(N[*:1])ccc12]}$$$$V2.0)	metabolized quickly	metabolized quickly		
CCC(NC(=O)[C@H](CO)NC(=O)[C@H](CCCCN)NC(=O)[C@H](CO)NC(=O)CCNC(C)=O)C(=O)Nc1ccc2c(C)cc(=O)oc2c1 (some centres unmarked) [AL, Ac-A′SKSB-AMC] (HELM PEPTIDE1{[ac].[bAla].S.K.S.[CCC(N[*:1])C(=O)[*:2]].[Cc1cc(=O)oc2cc(N[*:1])ccc12]}$$$$V2.0)	readily cleaved	significant stability		
CCCCC(NC(=O)[C@@H](NC(=O)CCNC(C)=O)C(C)C)C(=O)Nc1ccc2c(C)cc(=O)oc2c1 (some centres unmarked) [AM, Ac-A′VnL-AMC] (HELM PEPTIDE1{[ac].[bAla].V.[CCCCC(N[*:1])C(=O)[*:2]].[Cc1cc(=O)oc2cc(N[*:1])ccc12]}$$$$V2.0)	metabolized quickly	metabolized quickly		
CCCC[C@H](NC(=O)[C@@H](NC(=O)[C@@H]1CCCN1C(=O)[C@H](CO)NC(=O)CCNC(C)=O)C(C)C)C(=O)Nc1ccc2c(C)cc(=O)oc2c1 [AN, Ac-A′SPVnL-AMC] (HELM PEPTIDE1{[ac].[bAla].S.P.V.[Nle].[Cc1cc(=O)oc2cc(N[*:1])ccc12]}$$$$V2.0)	metabolized quickly	metabolized quickly		
CCCC[C@H](NC(=O)[C@H](CO)NC(=O)[C@H](CCCCNC(C)=O)NC(=O)[C@H](CO)NC(=O)CCNC(C)=O)C(=O)Nc1ccc2c(C)cc(=O)oc2c1 [AO, Ac-A′SK(Ac) SnL-AMC] (HELM PEPTIDE1{[ac].[bAla].S.K.S.[Nle].[Cc1cc(=O)oc2cc(N[*:1])ccc12]}|PEPTIDE2{[ac]}$PEPTIDE1,PEPTIDE2,4:R3-1:R2$$$V2.0)	readily cleaved	significant stability		
CCCCC(NC(=O)[C@H](CO)NC(=O)[C@H](CCCCN)NC(=O)[C@H](CO)NC(=O)CCNC(C)=O)C(=O)Nc1ccc2c(C)cc(=O)oc2c1 (some centres unmarked) [AP, Ac-A′SKSnL-AMC] (HELM PEPTIDE1{[ac].[bAla].S.K.S.[CCCCC(N[*:1])C(=O)[*:2]].[Cc1cc(=O)oc2cc(N[*:1])ccc12]}$$$$V2.0)	readily cleaved	significant stability		
CC[C@H](NC(=O)[C@@H](NC(=O)CCNC(C)=O)C(C)C)C(=O)Nc1ccc2c(C)cc(=O)oc2c1 [Compound AH, Ac-A′VB-AMC] (HELM PEPTIDE1{[ac].[bAla].V.[Abu].[Cc1cc(=O)oc2cc(N[*:1])ccc12]}$$$$V2.0)	metabolized quickly	metabolized quickly		
CCC(NC(=O)[C@@H](NC(=O)[C@H](CCCCNC(C)=O)NC(=O)[C@H](CO)NC(=O)CCNC(C)=O)C(C)C)C(=O)Nc1ccc2c(C)cc(=O)oc2c1 (some centres unmarked) [Compound AJ, Ac-A′SK(Ac) VB-AMC] (HELM PEPTIDE1{[ac].[bAla].S.K.V.[CCC(N[*:1])C(=O)[*:2]].[Cc1cc(=O)oc2cc(N[*:1])ccc12]}|PEPTIDE2{[ac]}$PEPTIDE1,PEPTIDE2,4:R3-1:R2$$$V2.0)	relatively stable	relatively stable		
CCC(NC(=O)[C@H](CO)NC(=O)[C@H](CCCCNC(C)=O)NC(=O)[C@H](CO)NC(=O)CCNC(C)=O)C(=O)Nc1ccc2c(C)cc(=O)oc2c1 (some centres unmarked) [Compound AK, Ac-A′SK(Ac) SB-AMC] (HELM PEPTIDE1{[ac].[bAla].S.K.S.[CCC(N[*:1])C(=O)[*:2]].[Cc1cc(=O)oc2cc(N[*:1])ccc12]}|PEPTIDE2{[ac]}$PEPTIDE1,PEPTIDE2,4:R3-1:R2$$$V2.0)	readily cleaved	significant stability		
N3-p[(HPMA)-co-(MA-b-Ala-Hz-HA-diABZI)]-Pg [Compound 94]			10.0 nm	survival (CT26 tumors): improved; tumor control / tumor growth (CT26 tumors): improved tumor control; tumor control (MC38 tumors): improved tumor control; serum IP-10 level compared to free STINGa [2]: similar
N3-p[(HPMA)-co-(MA-b-Ala-PEG4-VZ-PAB-diABZI)]-Pg [Compound 97]			7.6 nm	tumor control (MC38 tumors): improved tumor control; serum IP-10 level compared to free STINGa [2]: lower
N3-p[(HPMA)-co-(MA-b-Ala-VZ-PAB-diABZI)]-Pg [Compound 96]			26.9 nm	tumor control (MC38 tumors): improved tumor control; serum IP-10 level compared to free STINGa [2]: lower
N3-p[(HPMA)-co-(MA-b-Ala-cHz-HA-diABZI)]-Pg [Compound 95]			7.3 nm	tumor control (MC38 tumors): improved tumor control; serum IP-10 level compared to free STINGa [2]: lower
N3-poly(HPMA-co-Ma-b-Ala-2BXy-co-Ma-b-Ala-COOH)-Pg [Compound 48]				Rh (nm) at pH 6.5 [1]: 48.0 nm; Turbidity at pH 6.5 [3]: Aggregate; Turbidity at pH 7.4 [3]: 0.043
N3-poly(HPMA-co-Ma-b-Ala-2BXy-co-Ma-b-Ala-dimethylethylenediamine)-Pg [Compound 52]				Rh (nm) at pH 6.5 [1]: 4.1 nm
N3-poly(HPMA-co-Ma-b-Ala-diABZI)-Pg [Compound 56]			(aggregate)	survival (CT26 tumors): comparable to the mice that received the vehicle; tumor control / tumor growth (CT26 tumors): comparable to the mice that received the vehicle; tumor control (MC38 tumors): not
N3-poly[(HPMA-co-Ma-b-Ala-2BXy)-b-(HPMA-co-Ma-propyl-NH2)]-Pg [Compound 68]			6.5 nm	Rh (nm) at pH 6.5 [1]: 5.6 nm
N3-poly[(HPMA-co-Ma-b-Ala-2BXy)-b-HPMA]-Pg [Compound 62]			6.6 nm	Rh (nm) at pH 6.5 [1]: 6.9 nm; Turbidity at pH 6.5 [3]: 0.039; Turbidity at pH 7.4 [3]: 0.039
PAMAM-g-poly[(HPMA-co-Ma-b-Ala-2BXy)-b-(HPMA-co-Ma-propyl-NH2]-Pg [Compound 80]			12.4 nm	Turbidity at pH 7.4 [3]: 0.043
PAMAM-g-poly[(HPMA-co-Ma-b-Ala-2BXy)-b-HPMA]-Pg [Compound 78]			12.9 nm	Turbidity at pH 7.4 [3]: 0.041
